Square brackets hold non-standard residues; d marks the D form. Peptide text beside a SMILES is read from it. * marks the point of attachment. Sta = CC(C)C[C@H](N)[C@@H](O)CC(=O)O; Isovaleryl = CC(C)CC(=O)*

We go through 22 molecules from patent US20040102431A1, “Substituted amino-aza-cycloalkanes useful against malaria” (priority 2000, published 2004).

The target of one experiment is plasmepsin II (Plasmodium falciparum, UniProt P46925). As to the kind of experiment: biochemical. Conditions: Additional Examples table; FRET, pH 5, 37° C., 40 min, substrate 1 μM; read-out: IC50 (nM) on plasmepsin II.
plasmepsin II, sequence (P46925 125-453): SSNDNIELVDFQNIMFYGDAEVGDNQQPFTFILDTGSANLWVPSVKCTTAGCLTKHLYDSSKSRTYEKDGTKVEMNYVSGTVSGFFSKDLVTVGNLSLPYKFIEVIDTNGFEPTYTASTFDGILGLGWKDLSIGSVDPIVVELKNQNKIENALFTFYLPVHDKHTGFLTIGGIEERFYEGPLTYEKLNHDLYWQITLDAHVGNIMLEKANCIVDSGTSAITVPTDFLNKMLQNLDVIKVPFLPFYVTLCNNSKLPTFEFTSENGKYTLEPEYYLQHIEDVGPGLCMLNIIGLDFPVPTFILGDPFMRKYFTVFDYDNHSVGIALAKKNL
With `CCCCCCc1ccc(C(=O)N(Cc2ccc(-c3ccccc3)cc2)C2CCN(Cc3ccccc3)CC2)cc1` [Example 97, N-(1-Benzylpiperidin-4-yl)-N-biphenyl-4-ylmethyl-4-hexyl-benzamide], the IC50 (in general, the midpoint of a concentration-inhibition curve) came to 322 nM.

As for `CCCCCc1ccc(C(=O)N(Cc2ccc(OC)cc2)C2CCN(Cc3ccccc3)CC2)cc1` [Example 98, N-(1-Benzylpiperidin-4-yl)-N-(4-methoxybenzyl)-4-pentyl-benzamide], the IC50 stood at 322 nM. As to `CCCCCc1ccc(C(=O)N(Cc2ccc(-c3ccccc3)cc2)C2CCN(Cc3ccccc3O)CC2)cc1` [Example 99, N-Biphenyl-4-ylmethyl-N-[1-(2-hydroxybenzyl)piperidin-4-yl]-4-pentylbenzamide], the concentration for half-maximal inhibition (IC50) worked out at 361 nM. Regarding `CCCCC[C@H]1CC[C@H](C(=O)N(Cc2ccc(-c3ccccc3)cc2)C2CCN(Cc3ccccc3)CC2)CC1` [Example 100, trans-4-Pentylcyclohexane carboxylic acid(1-benzylpiperidin-4-yl)-biphenyl-4-ylmethyl amide], the IC50 worked out at 374 nM. Take `CCCCCc1ccc(C(=O)N(Cc2ccc(-c3ccccc3)cc2)C2CCN(Cc3ccc(F)cc3)CC2)cc1` [Example 101, N-Biphenyl-4-ylmethyl-N-[1-(4-fluorobenzyl)piperidin-4-yl]-4-pentylbenzamide]: the IC50 worked out at 385 nM. For the molecule `CCCCCc1ccc(CN(Cc2ccc(OCc3ccc(F)cc3)cc2)C2CCN(Cc3ccccc3)CC2)cc1` [Example 102, (1-Benzylpiperidin-4-yl)-[4-(4-fluorobenzyloxy)benzyl]-(4-pentylbenzyl)amine], the IC50 amounted to 414 nM.

As for `CCCCCc1ccc(CN(Cc2ccc(OCc3ccccc3)cc2)C2CCN(Cc3ccccc3)CC2)cc1` [Example 103, (4-Benzyloxybenzyl)-(1-benzyl-piperidin-4-yl)-(4-pentylbenzyl)amine], the IC50 was 431 nM. In the case of `CCCCCc1ccc(C(=O)N(Cc2ccc(-c3ccc(N(C)C)cc3)cc2)C2CCN(Cc3ccccc3)CC2)cc1` [Example 106, N-(1-Benzylpiperidin-4-yl)-N-(4′-dimethylaminobiphenyl-4-ylmethyl)-4-pentylbenzamide], the IC50 was 461 nM. Consider `CCCCCc1ccc(CN(Cc2ccc(-c3cncnc3)cc2)C2CCN(Cc3ccccc3)CC2)cc1` [Example 107, (1-Benzylpiperidin-4-yl)-(4-pentyl-benzyl)-(4-pyrimidin-5-ylbenzyl)amine], for which the IC50 came to 618 nM.

Regarding `CCCCCc1ccc(CN(Cc2ccc(-c3cccc(C(F)(F)F)c3)cc2)C2CCN(Cc3ccccc3)CC2)cc1` [Example 108, (1-Benzylpiperidin-4-yl)-(4-pentyl-benzyl)-(3′-trifluoromethyl-biphenyl-4-ylmethyl)amine], the IC50 came out at 634 nM.

Consider `CCCCCc1ccc(CN(Cc2ccc(-c3ccccc3F)cc2)C2CCN(Cc3ccccc3)CC2)cc1` [Example 109, (1-Benzylpiperidin-4-yl)-(2′-fluoro-biphenyl-4-ylmethyl)-(4-pentyl-benzyl)amine], for which the IC50 worked out at 656 nM. Same read-out and setting: then `CCCCCc1ccc(C(=O)N(Cc2ccc(-c3ccccc3)cc2)C2CCN(Cc3ccc(OC(F)(F)F)cc3)CC2)cc1` [Example 110, N-Biphenyl-4-ylmethyl-4-pentyl-N-[1-(4-trifluoromethoxybenzyl)piperidin-4-yl]benzamide], with 692 nM; and `CCCCCc1ccc(C(=O)N(C2CCN(Cc3ccccc3)CC2)[C@H](CO)Cc2ccc(OCc3ccccc3)cc2)cc1` [Example 111, N-[(1S)-2-(4-Benzyloxyphenyl)-1-hydroxymethylethyl]-N-(1-benzyl-piperidin-4-yl)-4-pentylbenzamide], with 749 nM; and `CCCCCc1ccc(C(=O)N(Cc2ccc(OCc3ccccc3)cc2)C2CCN(CCc3ccccc3)CC2)cc1` [Example 112, N-(4-Benzyloxybenzyl)-4-pentyl-N-(1-phenethylpiperidin-4-yl)benzamide], with 761 nM. `CCCCCc1ccc(C(=O)N(Cc2ccc(-c3cccc(OC(F)(F)F)c3)cc2)C2CCN(Cc3ccccc3)CC2)cc1` [Example 113, N-(1-Benzylpiperidin-4-yl)-4-pentyl-N-(3′-trifluoromethoxy-biphenyl-4-ylmethyl)benzamide]: the IC50 came to 816 nM. Consider `CCCCCc1ccc(C(=O)N(Cc2ccc(OCc3ccccc3)cc2)[C@@H]2CCN(Cc3ccccc3)C2)cc1` [Example 114, N-(4-Benzyloxybenzyl)-N-((3R)-1-benzylpyrrolidin-3-yl)-4-pentyl-benzamide], for which the IC50 came to 817 nM. `CCCCCc1ccc(C(=O)N(Cc2ccc(N(CCCC)CCCC)cc2)C2CCN(Cc3ccccc3)CC2)cc1` [Example 115, N-(1-Benzylpiperidin-4-yl)-N-(4-dibutylaminobenzyl)-4-pentyl-benzamide]: the IC50 came to 839 nM. As to `CCCCCc1ccc(C(=O)N(Cc2ccc(O)cc2)C2CCN(Cc3ccccc3)CC2)cc1` [Example 116, N-(1-Benzylpiperidin-4-yl)-N-(4-hydroxybenzyl)-4-pentyl-benzamide], the IC50 turned out to be 882 nM. With `CCCCCC(=Cc1ccccc1)CN(C(=O)c1ccc(CCCCC)cc1)C1CCN(Cc2ccccc2)CC1` [Example 117, N-(1-Benzylpiperidin-4-yl)-4-pentyl-N-(2-pentyl-3-phenylallyl)benzamide], the IC50 worked out at 933 nM. For the molecule `CCCCCC12CCC(C(=O)N(Cc3ccc(-c4ccccc4)cc3)C3CCN(Cc4ccccc4)CC3)(CC1)CC2` [Example 118, 4-Pentylbicyclo[2.2.2]octane-1-carboxylic acid(1-benzylpiperidin-4-yl)-biphenyl-4-ylmethylamide], the IC50 worked out at 942 nM. Take `CCCCCc1ccc(C(=O)N(Cc2ccc(-c3cccnc3)cc2)C2CCN(Cc3ccc(O)cc3)CC2)cc1` [N-[1-(4-Hydroxybenzyl)piperidin-4-yl]-4-pentyl-N-(4-pyridin-3-yl-benzyl)benzamide]: the IC50 was 105 nM.

For a further experiment, the system named is P. falciparum.
Assay: not given
Conditions: cited from earlier work.
Take `CC(C)CC(=O)N[C@H](C(=O)N[C@H](C(=O)N[C@@H](CC(C)C)[C@@H](O)CC(=O)N[C@@H](C)C(=O)N[C@@H](CC(C)C)[C@@H](O)CC(=O)O)C(C)C)C(C)C` [Pepstatin] (Isovaleryl-VV[Sta]A[Sta]-OH): the “growth of P. falciparum in red blood cells in vitro” value is listed as “inhibits the growth”.
